Reference: PubChem BioAssay AID1745844 (Carcinogenic Potency Database (CPDB), 2022)
Active and inactive are the calls of the source. The rule behind the calls is not given here.

System: rodent lifetime carcinogenesis bioassay, tumor incidence TD50
Assay: chronic cancer bioassays in animals – CPDB, compiled studies (AID 1745844)

Question: Which results are given for `S=c1[nH]c2ccccc2s1`?
Answer: carcinogen call (mouse, strain B6AKF1, females, oral dosing, site: any site (literature study), lesion: several types, types named in the paper, dosed 76 weeks, study length 76 weeks): negative (inactive); carcinogen call (mouse, strain B6AKF1, females, oral dosing, site: liver, lesion: hepatoma, dosed 76 weeks, study length 76 weeks): negative (inactive); carcinogen call (mouse, strain B6AKF1, females, oral dosing, site: lung, lesion: adenoma, dosed 76 weeks, study length 76 weeks): negative (inactive); TD50 (mouse, strain B6AKF1, males, oral dosing, site: any site (literature study), lesion: several types, types named in the paper, dosed 76 weeks, study length 76 weeks): 105 mg/kg/day (inactive); carcinogen call (mouse, strain B6AKF1, males, oral dosing, site: liver, lesion: hepatoma, dosed 76 weeks, study length 76 weeks): negative (inactive); carcinogen call (mouse, strain B6AKF1, males, oral dosing, site: lung, lesion: adenoma, dosed 76 weeks, study length 76 weeks): negative (inactive); TD50 (mouse, strain B6C3F1, females, by gavage, site: liver, lesion: hepatocellular adenoma + hepatocellular carcinoma + neoplastic nodule, dosed 103 weeks, study length 104 weeks): 2160 mg/kg/day; TD50 (mouse, strain B6C3F1, females, by gavage, site: liver, lesion: hepatocellular adenoma + hepatocellular carcinoma, dosed 103 weeks, study length 104 weeks): 2160 mg/kg/day; TD50 (mouse, strain B6C3F1, females, oral dosing, site: any site (literature study), lesion: several types, types named in the paper, dosed 76 weeks, study length 76 weeks): 283 mg/kg/day (inactive); carcinogen call (mouse, strain B6C3F1, females, oral dosing, site: liver, lesion: hepatoma, dosed 76 weeks, study length 76 weeks): negative (inactive); TD50 (mouse, strain B6C3F1, females, oral dosing, site: lung, lesion: adenoma, dosed 76 weeks, study length 76 weeks): 283 mg/kg/day (inactive); TD50 (mouse, strain B6C3F1, males, by gavage, site: any site (literature study), lesion: several types, types named in the paper, dosed 103 weeks, study length 104 weeks): 3330 mg/kg/day (inactive); TD50 (mouse, strain B6C3F1, males, by gavage, site: liver, lesion: hepatocellular adenoma + hepatocellular carcinoma + neoplastic nodule, dosed 103 weeks, study length 104 weeks): 3700 mg/kg/day; TD50 (mouse, strain B6C3F1, males, oral dosing, site: any site (literature study), lesion: several types, types named in the paper, dosed 76 weeks, study length 76 weeks): 17 mg/kg/day (inactive); TD50 (mouse, strain B6C3F1, males, oral dosing, site: liver, lesion: hepatoma, dosed 76 weeks, study length 76 weeks): 56.2 mg/kg/day (inactive); TD50 (mouse, strain B6C3F1, males, oral dosing, site: lung, lesion: adenoma, dosed 76 weeks, study length 76 weeks): 120 mg/kg/day (inactive); TD50 (rat, strain Fischer 344, females, by gavage, site: adrenal medulla + pituitary gland, anterior, lesion: pheochromocytoma + adenoma, NOS, dosed 103 weeks, study length 104 weeks): 247 mg/kg/day; TD50 (rat, strain Fischer 344, females, by gavage, site: adrenal medulla, lesion: pheochromocytoma, dosed 103 weeks, study length 104 weeks): 805 mg/kg/day; TD50 (rat, strain Fischer 344, females, by gavage, site: any site (literature study), lesion: several types, types named in the paper, dosed 103 weeks, study length 104 weeks): 576 mg/kg/day; TD50 (rat, strain Fischer 344, females, by gavage, site: pituitary gland, anterior, lesion: adenoma, NOS, dosed 103 weeks, study length 104 weeks): 343 mg/kg/day; TD50 (rat, strain Fischer 344, males, by gavage, site: adrenal medulla + multiple organs + pancreas + preputial gland, lesion: pheochromocytoma + pheochromocytoma, malignant + mononuclear-cell leukemia + acinar-cell adenoma + adenoma, NOS + carcinoma, NOS, dosed 103 weeks, study length 104 weeks): 157 mg/kg/day; TD50 (rat, strain Fischer 344, males, by gavage, site: adrenal medulla, lesion: pheochromocytoma + pheochromocytoma, malignant, dosed 103 weeks, study length 104 weeks): 394 mg/kg/day; TD50 (rat, strain Fischer 344, males, by gavage, site: any site (literature study), lesion: several types, types named in the paper, dosed 103 weeks, study length 104 weeks): 136 mg/kg/day; TD50 (rat, strain Fischer 344, males, by gavage, site: multiple organs + tunica albuginea, lesion: mesothelioma, malignant + mesothelioma, NOS, dosed 103 weeks, study length 104 weeks): 3200 mg/kg/day; TD50 (rat, strain Fischer 344, males, by gavage, site: multiple organs, lesion: mononuclear-cell leukemia, dosed 103 weeks, study length 104 weeks): 401 mg/kg/day; TD50 (rat, strain Fischer 344, males, by gavage, site: pancreas, lesion: acinar-cell adenoma, dosed 103 weeks, study length 104 weeks): 345 mg/kg/day; TD50 (rat, strain Fischer 344, males, by gavage, site: pituitary gland, anterior, lesion: adenoma, NOS, dosed 103 weeks, study length 104 weeks): 333 mg/kg/day; TD50 (rat, strain Fischer 344, males, by gavage, site: preputial gland, lesion: adenoma, NOS + carcinoma, NOS, dosed 103 weeks, study length 104 weeks): 1580 mg/kg/day; TD50 (rat, strain Fischer 344, males, by gavage, site: preputial gland, lesion: adenoma, NOS, dosed 103 weeks, study length 104 weeks): 1710 mg/kg/day; TD50 (rat, strain Fischer 344, males, by gavage, site: subcutaneous tissue, lesion: fibroma + neurofibroma, dosed 103 weeks, study length 104 weeks): 1900 mg/kg/day; TD50 (rat, strain Fischer 344, males, by gavage, site: subcutaneous tissue, lesion: fibroma, dosed 103 weeks, study length 104 weeks): 2200 mg/kg/day; TD50 (rat, strain Fischer 344, males, by gavage, site: subcutaneous tissue, lesion: fibrosarcoma + fibroma + neurofibroma + sarcoma, NOS, dosed 103 weeks, study length 104 weeks): 1730 mg/kg/day; TD50 (rat, strain Fischer 344, males, by gavage, site: testis, lesion: interstitial-cell tumor, dosed 103 weeks, study length 104 weeks): 240 mg/kg/day
